1 compound from ChEMBL document CHEMBL5032513, “Propionamide Derivatives as Dual μ-Opioid Receptor Agonists and σ1 Receptor Antagonists for the Treatment of Pain” (J Med Chem, 2021) can be followed below.

The pKa is the pH at which an ionisable group is half protonated. By logP is commonly meant a log measure of how a compound divides between an organic and an aqueous phase. As usually defined, the logD is the decadic logarithm of the distribution of all forms, ionised or not, between an organic phase and buffer at a given pH. Read a high logD as a more lipophilic compound. The Papp A→B is how fast a substance crosses the layer from the apical side. As usually defined, the half-life is the time in which the quantity being followed falls by half. The low end stands for rapid decline, the high end for slow decline. Broadly, the Cmax is the peak of the concentration-time curve. As a reminder, the Tmax is the time from dosing to the highest level. Usually AUC(0-t) stands for the area under the concentration-time curve up to a stated or last time point. As usually defined, the AUC is the area under the concentration-time curve, a measure of exposure. Low readings indicate low exposure, high ones high exposure. For orientation: clearance means a measure of how efficiently the substance is removed, as volume per time. As usually defined, the bioavailability is dose-corrected exposure relative to a reference, in per cent. A higher bioavailability goes with good availability.

The nature of data set [1]: Dissociation constant, pKa of compound. It is filed as physicochemical.
Data set [2] can be described thus: Lipophilicity, logP of compound. Type of data set: physicochemical. The settings on record: octanol/water.
Data set [3] in a line: Distribution coefficient, logD of compound. Type of data set: physicochemical. As to conditions: octanol/water.
Data set [4] can be described thus: Apparent permeability across apical to basolateral side in human Caco-2 cells. It is filed as ADME, cell-based. In general terms: Passage across Caco-2 layers is used to estimate intestinal permeability.
The nature of data set [5]: Half life in CD-1 mouse at 40 mg/kg, ip by HPLC-MS/MS analysis. It is filed as ADME, organism-based. As to conditions: in vivo.
The nature of data set [6]: Half life in CD-1 mouse at 1 mg/kg, iv by HPLC-MS/MS analysis. Type of data set: ADME, organism-based. As to conditions: in vivo.
The nature of data set [7]: Cmax in CD-1 mouse at 10 mg/kg, po by HPLC-MS/MS analysis. Type of data set: ADME, organism-based. On the set-up: route oral, dose 10 mg/kg. As to conditions: in vivo.
Data set [8] in a line: Cmax in CD-1 mouse at 40 mg/kg, ip by HPLC-MS/MS analysis. It is filed as ADME, organism-based. Also on record: route intraperitoneal, dose 40 mg/kg. The settings on record: in vivo.
A short description of data set [9]: Tmax in CD-1 mouse at 10 mg/kg, po by HPLC-MS/MS analysis. It is filed as ADME, organism-based. The settings on record: in vivo.
Data set [10] in a line: Tmax in CD-1 mouse at 40 mg/kg, ip by HPLC-MS/MS analysis. It is filed as ADME, organism-based. The settings on record: in vivo.
The nature of data set [11]: AUC(0 to t) in CD-1 mouse at 10 mg/kg, po by HPLC-MS/MS analysis. Also on record: dose 10 mg/kg. As to conditions: in vivo. Type of data set: ADME, organism-based.
A short description of data set [12]: AUC(0 to t) in CD-1 mouse at 40 mg/kg, ip by HPLC-MS/MS analysis. It is filed as ADME, organism-based. On the set-up: dose 40 mg/kg. As to conditions: in vivo.
Data set [13] can be described thus: AUC(0 to t) in CD-1 mouse at 1 mg/kg, iv by HPLC-MS/MS analysis. It is filed as ADME, organism-based. Also on record: dose 1 mg/kg. As to conditions: in vivo.
Data set [14] can be described thus: AUC in CD-1 mouse at 40 mg/kg, ip by HPLC-MS/MS analysis. Type of data set: ADME, organism-based. Also on record: dose 40 mg/kg. The settings on record: in vivo.
The nature of data set [15]: AUC in CD-1 mouse at 1 mg/kg, iv by HPLC-MS/MS analysis. Type of data set: ADME, organism-based. On the set-up: dose 1 mg/kg. The settings on record: in vivo.
A short description of data set [16]: Clearance in CD-1 mouse at 1 mg/kg, iv by HPLC-MS/MS analysis. Type of data set: ADME, organism-based. The settings on record: in vivo.
A short description of data set [17]: Volume of distribution at steady state in CD-1 mouse at 1 mg/kg, iv by HPLC-MS/MS analysis. Type of data set: ADME, organism-based. As to conditions: in vivo, read-out: Vdss.
The nature of data set [18]: Oral bioavailability in CD-1 mouse plasma at 10 mg/kg by HPLC-MS/MS analysis. It is filed as ADME, organism-based.
A short description of data set [19]: Bioavailability in CD-1 mouse plasma at 40 mg/kg, ip by HPLC-MS/MS analysis. It is filed as ADME, organism-based.
Data set [20] in a line: AUC in Wistar rat plasma at 40 mg/kg, ip. Type of data set: ADME, organism-based. Also on record: dose 40 mg/kg.
Data set [21] can be described thus: AUC in Wistar rat brain at 40 mg/kg, ip. It is filed as ADME, organism-based. Also on record: dose 40 mg/kg.

Turning to `CCC(=O)N(CC1(N2CCN(CC(C)C)CC2)CCOCC1)c1cccc(C(F)(F)F)n1`, the pKa in [1] was determined as 8.9. In data set [2], this compound had a log partition coefficient (logP) of 3.7. The log distribution coefficient (logD) in [3] came out at 2.2. Moreover, the Papp A→B in [4] worked out at 16.9 ×10⁻⁶ cm/s. Besides, the half-life in data set [5] is 36 min; in [6], 24 min. Moreover, the Cmax in [7] turned out to be 130 ng/mL; in [8], 11300 ng/mL. For the same compound, the Tmax in [9] is 30 min; in data set [10] it was 4.8 min. Besides, the exposure AUC(0-t) in data set [11] worked out at 122 ng·h/mL; in [12], 5950 ng·h/mL; in [13], 92 ng·h/mL. Also, the AUC was 5960 ng·h/mL in data set [14], 93 ng·h/mL in data set [15], 2810 ng·h/mL in data set [20] and 2430 ng·h/mL in data set [21]. This compound also showed a clearance in data set [16] of 180 mL/min/kg. Also, the Vd in data set [17] amounted to 2.9 L/kg. Also, the bioavailability was 13% in [18] and more than 100% in data set [19].
